Earlier results in article PMC6858927 (Investigational new drugs, 2019).

System: AML cells with TKD mutants
Settings: cited from earlier work

Row | SMILES | sensitivity of AML cells with TKD mutants
1 | CC(C)(C)c1cc(NC(=O)Nc2ccc(-c3cn4c(n3)sc3cc(OCCN5CCOCC5)ccc34)cc2)no1 [quizartinib] | highly resistant
2 | CNC(=O)c1cc(Oc2ccc(NC(=O)Nc3ccc(Cl)c(C(F)(F)F)c3)cc2)ccn1 [sorafenib] | highly resistant
